Results: the NIST ThermoML archive (doi:10.1016/j.jct.2018.02.021)
“And” between values parts separate entries of the source, which are not always exact repeats. Equal entries are not always repeated.

Assay: xn = mol fraction of the nth substance listed
Conditions: Gas, Buoyancy - hydrostatic balance with magnetic suspension - two sinkers

CC [ethane] + O=C=O
Conditions | mass density
273.15 K, 531.09 kPa, x1 = 0.2003 | 10.008 kg/m3
273.15 K, 531.52 kPa, x1 = 0.2003 | 10.0165 kg/m3
273.15 K, 531.92 kPa, x1 = 0.2003 | 10.0243 kg/m3
273.15 K, 534.39 kPa, x1 = 0.2003 | 10.0711 kg/m3
273.15 K, 534.79 kPa, x1 = 0.2003 | 10.0789 kg/m3
273.15 K, 535.19 kPa, x1 = 0.2003 | 10.087 kg/m3
273.15 K, 535.63 kPa, x1 = 0.2003 | 10.0955 kg/m3
273.15 K, 544.52 kPa, x1 = 0.2003 | 10.2735 kg/m3
273.15 K, 544.86 kPa, x1 = 0.2003 | 10.2801 kg/m3
273.15 K, 548.14 kPa, x1 = 0.4995 | 9.33133 kg/m3
273.15 K, 551.38 kPa, x1 = 0.05023 | 10.9267 kg/m3
273.15 K, 1023.8 kPa, x1 = 0.2003 | 20.0462 kg/m3
273.15 K, 1024.6 kPa, x1 = 0.2003 | 20.0627 kg/m3
273.15 K, 1025.4 kPa, x1 = 0.2003 | 20.0779 kg/m3
273.15 K, 1026.6 kPa, x1 = 0.2003 | 20.1024 kg/m3
273.15 K, 1027 kPa, x1 = 0.2003 | 20.1108 kg/m3
273.15 K, 1027.6 kPa, x1 = 0.2003 | 20.1219 kg/m3
273.15 K, 1037.4 kPa, x1 = 0.2003 | 20.3384 kg/m3
273.15 K, 1037.8 kPa, x1 = 0.2003 | 20.347 kg/m3
273.15 K, 1051.5 kPa, x1 = 0.4995 | 18.6959 kg/m3
273.15 K, 1075.8 kPa, x1 = 0.05023 | 22.195 kg/m3
273.15 K, 2035.1 kPa, x1 = 0.2003 | 43.7258 kg/m3
273.15 K, 2035.5 kPa, x1 = 0.2003 | 43.7371 kg/m3
273.15 K, 2050.8 kPa, x1 = 0.4995 | 40.4917 kg/m3
273.15 K, 2062 kPa, x1 = 0.05023 | 46.5645 kg/m3
273.15 K, 2554 kPa, x1 = 0.4995 | 53.9302 kg/m3
273.15 K, 2562.2 kPa, x1 = 0.05023 | 61.2253 kg/m3
273.15 K, 3037.3 kPa, x1 = 0.2003 | 73.9637 kg/m3
273.15 K, 3037.9 kPa, x1 = 0.2003 | 73.9838 kg/m3
273.15 K, 3053.1 kPa, x1 = 0.05023 | 77.9966 kg/m3
273.15 K, 3054.4 kPa, x1 = 0.4995 | 70.1143 kg/m3
273.15 K, 3480.6 kPa, x1 = 0.2003 | 91.4391 kg/m3 and 91.4331 kg/m3
273.15 K, 3488.2 kPa, x1 = 0.2003 | 91.7868 kg/m3
273.15 K, 3488.7 kPa, x1 = 0.2003 | 91.8117 kg/m3
273.15 K, 3489.4 kPa, x1 = 0.2003 | 91.84 kg/m3
273.15 K, 3507.2 kPa, x1 = 0.2003 | 92.6352 kg/m3 and 92.638 kg/m3
283.15 K, 518.17 kPa, x1 = 0.2003 | 9.36982 kg/m3
283.15 K, 519.18 kPa, x1 = 0.05023 | 9.86023 kg/m3
283.15 K, 538.66 kPa, x1 = 0.4995 | 8.79999 kg/m3
283.15 K, 1030 kPa, x1 = 0.05023 | 20.2371 kg/m3
283.15 K, 1031.7 kPa, x1 = 0.4995 | 17.4887 kg/m3
283.15 K, 1041.5 kPa, x1 = 0.2003 | 19.5141 kg/m3
283.15 K, 2018.1 kPa, x1 = 0.4995 | 37.3012 kg/m3
283.15 K, 2025.9 kPa, x1 = 0.05023 | 42.9555 kg/m3
283.15 K, 2038.1 kPa, x1 = 0.2003 | 41.2701 kg/m3
283.15 K, 3029.9 kPa, x1 = 0.05023 | 70.7861 kg/m3
283.15 K, 3032.8 kPa, x1 = 0.4995 | 62.9635 kg/m3
283.15 K, 3042.8 kPa, x1 = 0.2003 | 68.0188 kg/m3
283.15 K, 3546.2 kPa, x1 = 0.05023 | 88.2259 kg/m3
283.15 K, 3550.3 kPa, x1 = 0.4995 | 79.7057 kg/m3
283.15 K, 4013.1 kPa, x1 = 0.4995 | 98.6426 kg/m3
283.15 K, 4045.7 kPa, x1 = 0.05023 | 108.543 kg/m3
283.15 K, 4069.8 kPa, x1 = 0.2003 | 104.912 kg/m3
283.15 K, 4501.8 kPa, x1 = 0.2003 | 126.607 kg/m3
283.15 K, 4602.7 kPa, x1 = 0.2003 | 132.714 kg/m3
283.15 K, 4730.9 kPa, x1 = 0.2003 | 141.359 kg/m3
283.15 K, 4821.7 kPa, x1 = 0.2003 | 148.288 kg/m3
293.15 K, 519.57 kPa, x1 = 0.2003 | 9.04307 kg/m3
293.15 K, 525.66 kPa, x1 = 0.4995 | 8.25163 kg/m3
293.15 K, 1026.1 kPa, x1 = 0.4995 | 16.6496 kg/m3
293.15 K, 1034.3 kPa, x1 = 0.2003 | 18.5618 kg/m3
293.15 K, 2026.9 kPa, x1 = 0.2003 | 38.8656 kg/m3
293.15 K, 2045.8 kPa, x1 = 0.4995 | 35.8484 kg/m3
293.15 K, 3032.6 kPa, x1 = 0.4995 | 58.2406 kg/m3
293.15 K, 3042.1 kPa, x1 = 0.2003 | 63.2873 kg/m3
293.15 K, 4051.5 kPa, x1 = 0.4995 | 88.2376 kg/m3
293.15 K, 4055.4 kPa, x1 = 0.2003 | 93.5899 kg/m3
293.15 K, 4555.2 kPa, x1 = 0.4995 | 107.86 kg/m3
293.15 K, 5019.3 kPa, x1 = 0.4995 | 131.598 kg/m3
293.15 K, 5020.8 kPa, x1 = 0.2003 | 133.141 kg/m3
308.15 K, 542.53 kPa, x1 = 0.4995 | 8.06912 kg/m3
308.15 K, 1040.9 kPa, x1 = 0.4995 | 15.9143 kg/m3
308.15 K, 2034.5 kPa, x1 = 0.4995 | 33.0477 kg/m3
308.15 K, 3050.6 kPa, x1 = 0.4995 | 53.2563 kg/m3
308.15 K, 4038.3 kPa, x1 = 0.4995 | 76.6788 kg/m3
308.15 K, 4551.5 kPa, x1 = 0.4995 | 90.9786 kg/m3
308.15 K, 5013.9 kPa, x1 = 0.4995 | 105.639 kg/m3
323.15 K, 524.46 kPa, x1 = 0.05023 | 8.6271 kg/m3
323.15 K, 543.73 kPa, x1 = 0.4995 | 7.68033 kg/m3
323.15 K, 1024.4 kPa, x1 = 0.4995 | 14.7964 kg/m3
323.15 K, 1024.9 kPa, x1 = 0.05023 | 17.2074 kg/m3
323.15 K, 2039.4 kPa, x1 = 0.05023 | 35.7934 kg/m3
323.15 K, 2040.2 kPa, x1 = 0.4995 | 31.0101 kg/m3
323.15 K, 3036.4 kPa, x1 = 0.4995 | 48.806 kg/m3
323.15 K, 3038.7 kPa, x1 = 0.05023 | 55.972 kg/m3
323.15 K, 4027.4 kPa, x1 = 0.4995 | 68.9564 kg/m3
323.15 K, 4049.9 kPa, x1 = 0.05023 | 78.8065 kg/m3
323.15 K, 5024.6 kPa, x1 = 0.4995 | 92.5708 kg/m3
323.15 K, 5061.4 kPa, x1 = 0.05023 | 104.85 kg/m3
323.15 K, 5982.2 kPa, x1 = 0.4995 | 119.675 kg/m3
323.15 K, 6013.8 kPa, x1 = 0.05023 | 133.393 kg/m3
